Measured values published in patent US10184129B2, “Method and compositions to promote plant growth in metal contaminated environments” (The Regents of the University of California, priority 2011, dated 2019).
Entries after “also recorded” stand apart in the source; their conditions may differ.

Tested on: Col-0 wt and als7-1/swa2-2 roots
Assay: Root growth of seedlings in a hydroponic environment supplemented with AlCl3 (pH 4.2)
Assay type: in vivo, Arabidopsis
Details: for increase in root growth: pH 4.2
Protocol: Seedlings of Col-0 wt and als7-1/swa2-2 were grown for 7 d hydroponically either in the absence or presence 25 μM AlCl3 (pH 4.2), after which root tissue was collected for analysis of spermine content by HPLC. […] Seedlings of Col-0 wt and als7-1/swa2-2 were grown in a hydroponic environment either in the absence or presence of 25 μM AlCl3 (pH 4.2) with or without 25 μM spermine. After 7 d growth, root length was measured for all treatments, with mean±SE values determined from 30 roots of each. […] Seedlings of Col-0 wt were grown either in the absence or presence of 1.5 mM DEMO in a hydroponic environment supplemented with increasing concentrations of AlCl3 (pH 4.2). After 7 d, root length was measured for all treatments, with mean±SE values determined from 30 roots of each. […] Seedlings of Col-0 wt were grown hydroponically either in the absence or presence of 25 μM spermine for 5 d after which the samples were transferred to a solution with or without 25 μM AlCl3 (pH 4.2) containing either 0 or 25 μM spermine. Following 2 d of growth, root tissue was collected and treated for measurement of Al content by ICP-OES.
For all growth experiments performed, Col-0 wt and mutant seeds were surface-sterilized with household bleach and cold stratified for 4 d at 4° C. in the dark for synchronization of germination. Seeds were subsequently suspended in 0.15% (w/v) agarose and for planting on either soaked gel plates or hydroponic plates. Further description of the growth experiments can be found in Larsen, P. B., Geisler, M. J. B., Jones, C. A., Williams, K. M., and Cancel, J. D. (2005), ALS3 encodes a phloem-localized ABC transporter-like protein that is required for aluminum tolerance in Arabidopsis. Plant J. 41, 353-63. All growth analyses were done in a Percival 136LLVL plant growth chamber under a 24 hr light cycle at 20° C. Adult plants were grown in soil under a 24 hr light cycle at 20° C. in a plant growth room supplemented with Sylvania Gro-Lite® fluorescent bulbs.

## NCCCNCCCCNCCCN [spermine]
Col-0 wt and als7-1/swa2-2 seedlings, 25 μM spermine, 25 μM AlCl3 pH 4.2, hydroponic, 7 d
  root growth in the presence of Al (in words): increases root growth; also recorded: substantial increase in root growth
Col-0 wt, 25 μM spermine, 25 or 50 μM AlCl3, hydroponic, 7 d
  increase in root growth: ≥ 6 fold
Col-0 wt, spermine added, 25 or 50 μM AlCl3, hydroponic
  root growth compared to untreated controls (in words): remained significantly inhibited
als7-1/swa2-2, 25 μM spermine, 25 or 50 μM AlCl3, hydroponic, 7 d
  increase in root growth: ≥ 6 fold
als7-1/swa2-2, spermine added, 25 or 50 μM AlCl3, hydroponic
  root growth in the presence of Al (in words): almost full restoration
